Test results from PMC9072872, “Structure-based design of nucleoside-derived analogues as sulfotransferase inhibitors” (RSC Advances, 2019).

Assays:
TPST1 [1] = target: T1, TPST1 (Homo sapiens, UniProt O60507); experiment: Immunoblot of GST-CC4tide tyrosine sulfation by TPST1 (anti-sulfotyrosine antibody); assay type: biochemical; details: compound 400 μM, GST-CC4-tide 1 μg, TPST1 0.2 μg, PAPS 5 μM, 15 min
T1 construct: Human TPST1 (residues Lys43-Leu360) enzyme was purified as a recombinant protein; made in house
T1 sequence (O60507 43-360): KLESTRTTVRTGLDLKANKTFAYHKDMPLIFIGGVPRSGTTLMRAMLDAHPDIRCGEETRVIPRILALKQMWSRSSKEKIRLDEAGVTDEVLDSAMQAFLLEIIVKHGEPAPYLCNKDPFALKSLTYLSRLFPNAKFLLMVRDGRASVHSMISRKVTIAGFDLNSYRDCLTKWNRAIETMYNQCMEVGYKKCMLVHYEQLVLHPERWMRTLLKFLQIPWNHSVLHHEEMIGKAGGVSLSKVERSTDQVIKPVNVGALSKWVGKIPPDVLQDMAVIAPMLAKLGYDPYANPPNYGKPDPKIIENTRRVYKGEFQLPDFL
Description: In order to further assess TPST1 inhibition by 2′-deoxy-PAP and compounds 1–14 using a complementary assay, immunoblotting of a TPST1 protein substrate (GST-CC4tide) was implemented with a monoclonal antibody that specifically recognises sulfotyrosine, using PAP as positive control (Fig. 5A). Compounds were screened at 400 μM in the assay. In common with the […] enzyme assay using a synthetic peptide, a broad range of inhibitory activities was observed.
Fig. 5 Immunological evaluation of TPST1 inhibition towards substrate and a Ser/Thr protein kinase counter-screen. (A) Immunoblots evaluating TPST1 sulfotransferase activity in the presence of a panel of PAP- and PAPS-mimetic compounds. […] After termination of the reaction using SDS-PAGE sample buffer, tyrosine sulfation was visualised by immunoblotting using a monoclonal sulfotyrosine antibody (top panel), with equal GST-CC4-tide and TPST1 loading confirmed using an antibody to detect 6xHis tagged proteins (bottom panel). (B) Enzymatic inhibition of PKA catalytic activity by a panel of PAP- and PAPS-mimetic compounds. PKA kinase (1 nM) was incubated with ATP (5 μM) in the presence of the appropriate nucleoside analogue (400 μM) for 30 min at 20 °C. PKA activity was calculated in real-time using fluorescently-labelled substrate peptide (2 μM) and normalised to DMSO (4% v/v) or buffer control.[77] Data in B is mean and SD of 3 individual experiments. Staurosporine is included at 40 μM as a generic inhibitor of kinase activity. […]
All standard laboratory biochemicals, were purchased from Sigma, and were of the highest analytical quality.
(§1) 5'-phosphosulfate, lithium salt hydrate, PAP (adenosine 3',5'-diphosphate, disodium salt), CoA (coenzymeA, sodium salt), ATP (adenosine 5’-triphosphate, disodium salt hydrate) were all purchased from Sigma and stored at -80 °C to minimise degradation.
(§2) Recombinant Protein Production and SDS-PAGE
(§3) Human TPST1 (residues Lys43-Leu360) enzyme was purified as a recombinant protein containing an N-terminal 6xHis tag as previously described. […]
pMAL-c2x plasmid encoding an N-terminal Maltose Binding Protein (MBP) affinity tag.6 Glutathione-S-transferase (GST) tagged CC4-tide ([…]) was cloned into pOPINJ (OPPF-UK) and […]
affinity purified from BL21 (DE3) pLysS E. coli using Glutathione-Sepharose 4B (GE Healthcare). 5 For SDS-PAGE, proteins were denatured in Laemmli sample buffer, heated at 95 °C for 5 min and then analysed by SDS-PAGE with 10% (v/v) polyacrylamide gels. Gels were stained and de-stained using a standard Coomassie Brilliant Blue protocol. To evaluate protein sulfation by immunoblotting, standard western blotting procedures were followed using monoclonal anti-sulfotyrosine ant ibody clone o-1C-A2 (Millipore) generated using a phage display procedure and sulfotyrosine selection peptide antigens7 in the presence of appropriate positive and negative controls, and modifications visua lised using ECL […]
Data was normalized […]
with respect to these control assays, with sulfate incorporation into the substr ate limited to ~ 20% to prevent depletion of PAPS and to ensure assay linearity. K m and IC50 values were determined by non-linear regression analysis with GraphPad Prism software. […]

TPST1 [2] = target: T1, TPST1; experiment: Microfluidic mobility shift sulfation assay, TPST1 (fluorescent CC4-tide substrate); assay type: biochemical; details: for IC50: read-out: IC50 against TPST1
Description: (§4) Compounds were initially screened at 400 μM in the presence 20 nM HS2ST and 0.1 μM TPST1 respectively.
Fig. 4 Summary of enzymatic inhibition assays against HS2ST and TPST1. (A) Enzymatic analysis of HS2ST1 inhibition by a panel of PAP- and PAPS-mimetic compounds. […] HS2ST sulfotransferase activity was assayed using a fluorescent hexasaccharide substrate (2 μM) and normalised to DMSO (4% v/v) or buffer control. Data shown is mean and SD of 4 repeat experiments. (B) Full dose–response curves for selected compounds. […] HS2ST activity calculated as previously described. Data from two independent experiments are combined. (C) Enzymatic analysis of TPST1 inhibition by a panel of PAP- and PAPS-mimetic compounds. […] TPST1 activity was measured using fluorescently-labelled CC4-tide (2 μM) and normalised to DMSO (4% v/v) or buffer control. (D) Full dose–response curves for selected compounds. […] TPST1 activity was measured using CC4-tide and normalised to DMSO or buffer controls as previously described. The data shown is from duplicate experiments. […]
TPST1 peptide substrate (CC4-tide, 5-FAM-EDFED YEFDG-CONH2) was synthesised using solid-phase Fmoc chemistry (Pepceuticals, Leicester, UK). All standard laboratory biochemicals, were purchased from Sigma, and were of the highest analytical quality.
as §1, §2, §3
(§5) Microfluidics-Based Sulfation Assay
(§6) Non-radioactive microfluidic mobility shift peptide and carbohydrate sulfation assays were performed in solution with a 12-sipper chip coated with SR8 reagent and a Perkin Elmer EZ Reader II system 8 using an EDTA-based separation buffer and real-time kinetic evaluation of substrate sulfation. Pressure and voltage settings were adjusted manually to afford optimal separation of the sulfated product and non-sulfated substrate, with a sample (sip) volume of 20 nL, and total assay tim es appropriate for the experiment. The fluorophore tagged TPST1 peptide substrate and HS2ST1 glycan substrate where detected by the EZ Reader via LED-induced fluorescence.
(§7) Individual sulfation assays were assembled in a 384 well plate in a volume of 80 µL in the presence of […]
(§8) and 5 mM MgCl2. The degree of substrate sulfation was directly calculated using EZ Reader software by measuring the sulfo-product:non-sulfated substrate ratio at each time-point. The act ivity of the sulfotransferase enzymes in the presence of biochemicals and small molecule inhibitors was quantified in ‘kinetic mode’ by monitoring the amount of sulfated product generated over the assay time, relative to control assay with no additional inhibitor molecule (DMSO or buffer control). Data was normalized with respect to these control assays, with sulfate incorporation into the substr ate limited to ~ 20% to prevent depletion of PAPS and to ensure assay linearity. K m and IC50 values were determined by non-linear regression analysis with GraphPad Prism software. […]

HS2ST = target: T2, HS2ST (Gallus gallus, UniProt Q76KB1); experiment: Microfluidic mobility shift sulfation assay, HS2ST (fluorescent hexasaccharide substrate); assay type: biochemical, chicken; details: read-out: IC50 against HS2ST
T2 construct: made in house; host or cells: E. coli Rosetta-gami (DE3)
T2 sequence (Q76KB1 1-356): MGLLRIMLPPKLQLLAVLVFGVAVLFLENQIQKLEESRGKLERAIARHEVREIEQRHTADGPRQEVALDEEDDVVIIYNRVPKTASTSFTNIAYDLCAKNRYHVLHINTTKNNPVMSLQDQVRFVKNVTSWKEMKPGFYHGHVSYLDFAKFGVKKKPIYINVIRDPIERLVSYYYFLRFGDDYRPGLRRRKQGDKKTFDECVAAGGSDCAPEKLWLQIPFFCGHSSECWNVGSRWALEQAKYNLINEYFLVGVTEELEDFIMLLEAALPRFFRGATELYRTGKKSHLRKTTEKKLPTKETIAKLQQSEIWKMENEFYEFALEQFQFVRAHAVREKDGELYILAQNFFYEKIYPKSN
Description: as §4
Fig. 4 Summary of enzymatic inhibition assays against HS2ST and TPST1. (A) Enzymatic analysis of HS2ST1 inhibition by a panel of PAP- and PAPS-mimetic compounds. […] HS2ST sulfotransferase activity was assayed using a fluorescent hexasaccharide substrate (2 μM) and normalised to DMSO (4% v/v) or buffer control. Data shown is mean and SD of 4 repeat experiments. (B) Full dose–response curves for selected compounds. […] HS2ST activity calculated as previously described. Data from two independent experiments are combined. (C) Enzymatic analysis of TPST1 inhibition by a panel of PAP- and PAPS-mimetic compounds. […] TPST1 activity was measured using fluorescently-labelled CC4-tide (2 μM) and normalised to DMSO (4% v/v) or buffer control. (D) Full dose–response curves for selected compounds. […] TPST1 activity was measured using CC4-tide and normalised to DMSO or buffer controls as previously described. The data shown is from duplicate experiments.
N-sulfated, fluorescein-tagged HS2ST1 hexasaccharide glycan substrate (GlcNS-GlcA- GlcNS-IdoA-GlcNS-GlcA-fluorescein, where S=sulfation) containing L-IdoA at the third residue from the reducing end (to which a linker and the fluorophore were conjugated) was purchased from GLY CAN therapeutics. TPST1 peptide substrate (CC4-tide, 5-FAM-EDFED YEFDG-CONH2) was synthesised using solid-phase Fmoc chemistry (Pepceuticals, Leicester, UK). All standard laboratory biochemicals, were purchased from Sigma, and were of the highest analytical quality.
as §1
Recombinant Protein Production and SDS-PAGE […]
as §5, §6, §7, §8

sulfotransferase = tested on: sulfotransferase; set-up: method as in PMID 29934491, PMID 29934490; details: non nucleoside-derived; cited from earlier work

| SMILES | suppression of tyrosine sulfation (immunoblot) (TPST1 [1]) | IC50 (TPST1 [2]) [µM] | IC50 (HS2ST) [µM] | further results |
| --- | --- | --- | --- | --- |
| Nc1ncnc2c1ncn2[C@H]1C[C@H](OCC(=O)NO)[C@@H](COCC(=O)NO)O1 [Compound 3] | partial suppression | – | – | – |
| COC(=O)COC1CC(n2cnc3c(N)ncnc32)OC1COP(=O)(O)O (stereo not drawn) [Compound 5] | complete suppression | 100 to 300 | – | – |
| COC(=O)COC1CC(n2cnc3c(N)ncnc32)OC1COP(=O)(O)OCc1ccccc1 (stereo not drawn) [Compound 6] | complete suppression | 100 to 300 | – | – |
| CC(=O)c1c(O)c(C)c(O)c(Cc2c(O)c3c(c(C(=O)/C=C/c4ccccc4)c2O)OC(C)(C)C=C3)c1O [rottlerin] | – | – | – | sulfotransferase inhibitor potency (sulfotransferase): low/sub-micromolar |
| Cc1ccc(C(=O)Nc2ccc(S(=O)(=O)O)c3cc(S(=O)(=O)O)cc(S(=O)(=O)O)c23)cc1NC(=O)c1cccc(NC(=O)Nc2cccc(C(=O)Nc3cc(C(=O)Nc4ccc(S(=O)(=O)O)c5cc(S(=O)(=O)O)cc(S(=O)(=O)O)c45)ccc3C)c2)c1 [suramin] | – | – | – | sulfotransferase inhibitor potency (sulfotransferase): low/sub-micromolar |

More lines, main results first:

| suppression of tyrosine sulfation (immunoblot) (TPST1 [1]) | IC50 (TPST1 [2]) [µM] | IC50 (HS2ST) [µM] | SMILES | further results |
| --- | --- | --- | --- | --- |
| did not show any activity | – | – | Nc1ncnc2c1ncn2[C@H]1C[C@H](O)[C@@H](Cn2cc(C(=O)O)nn2)O1 [Compound 7] | inhibitory activity against TPST1 (TPST1 [2]; compound 400 μM, TPST1 0.1 μM, PAPS 5 μM): showed activity |
| partial suppression | – | 100 to 300 | Nc1ncnc2c1ncn2[C@H]1C[C@H](OP(=O)(O)O)[C@@H](Cn2cc(C(=O)O)nn2)O1 [Compound 8] | – |
| partial suppression | – | 100 to 300 | Nc1ncnc2c1ncn2[C@H]1C[C@H](O)[C@@H](Cn2cc(C(=O)OCc3ccccc3)nn2)O1 [Compound 9] | – |
| – | 1.5 | 2 | Nc1ncnc2c1ncn2[C@@H]1O[C@H](COP(=O)(O)O)[C@@H](OP(=O)(O)O)[C@H]1O [PAP, adenosine 3′,5′-diphosphate, reference compound] | – |
